Measurements published in the supplement of paper PMC10627819.

Legend:
B. subtilis 168 [1] = test: fitness (endpoint OD595 vs no drug) (fraction); higher = more growth
Procedure, shortened: (§1)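 Fitness was defined as the optical density at the transition into stationary phase relative to the robust mean of no-drug control wells. Values were capped at 1. Cultures were started at OD595 0.01 in 384-well plates (30 µl, or 55 µl for S. pneumoniae) in TSB, LB Lennox or CY at 37 °C. OD595 was recorded every 30 min over 14 h, with the first reading subtracted as background.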

S. pneumoniae D39V [2] = test: as above
Procedure, shortened: as §1

S. aureus Newman [3] = test: as above
Procedure, shortened: as §1

S. aureus DSM 20231 [4] = test: as above
Procedure, shortened: as §1

B. subtilis 168 [5] = test: Bliss interaction score (quartile over a dose matrix) (fitness difference); higher = more antagonism (negative = synergy)
Procedure, shortened: (§2)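 At entry into stationary phase, OD595 was recorded and divided by the robust mean of the no-drug wells on that plate, with any value above 1 set to 1. This gives the fitness measure used throughout. Single-drug fitness was inferred from combination data, and the Bliss score, observed minus product-expected fitness, is shown as quartiles across technical, biological and donor/recipient replicates.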

S. pneumoniae D39V [6] = test: as above
Procedure, shortened: as §2

S. aureus Newman [7] = test: as above
Procedure, shortened: as §2

S. aureus DSM 20231 [8] = test: as above
Procedure, shortened: as §2
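Throughout, for Bliss interaction score (quartile over a dose matrix): first quartile when negative (synergy) and third quartile when positive (antagonism).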

Cc1onc(-c2ccccc2)c1C(=O)N[C@@H]1C(=O)N2[C@@H]1SC(C)(C)[C@@H]2C(=O)O [Oxacillin] + C[n+]1ccc(-c2cc[n+](C)cc2)cc1 [Paraquat]
Conditions | fitness
B. subtilis 168 [1], first compound 0.002 µg/mL, partner 1.25 µg/mL | 0.964
B. subtilis 168 [1], first compound 0.002 µg/mL, partner 2.5 µg/mL | 0.922
B. subtilis 168 [1], first compound 0.002 µg/mL, partner 5 µg/mL | 0.725
B. subtilis 168 [1], first compound 0.004 µg/mL, partner 1.25 µg/mL | 0.917
B. subtilis 168 [1], first compound 0.004 µg/mL, partner 2.5 µg/mL | 0.864
B. subtilis 168 [1], first compound 0.004 µg/mL, partner 5 µg/mL | 0.747
B. subtilis 168 [1], first compound 0.008 µg/mL, partner 1.25 µg/mL | 0.861
B. subtilis 168 [1], first compound 0.008 µg/mL, partner 2.5 µg/mL | 0.836
B. subtilis 168 [1], first compound 0.008 µg/mL, partner 5 µg/mL | 0.665
S. aureus DSM 20231 [4], first compound 0.0156 µg/mL, partner 1.25 µg/mL | 0.909
S. aureus DSM 20231 [4], first compound 0.0156 µg/mL, partner 2.5 µg/mL | 0.892
S. aureus DSM 20231 [4], first compound 0.0156 µg/mL, partner 5 µg/mL | 0.865
S. aureus DSM 20231 [4], first compound 0.0312 µg/mL, partner 1.25 µg/mL | 0.704
S. aureus DSM 20231 [4], first compound 0.0312 µg/mL, partner 2.5 µg/mL | 0.688
S. aureus DSM 20231 [4], first compound 0.0312 µg/mL, partner 5 µg/mL | 0.63
S. aureus DSM 20231 [4], first compound 0.0625 µg/mL, partner 1.25 µg/mL | 0.466
S. aureus DSM 20231 [4], first compound 0.0625 µg/mL, partner 2.5 µg/mL | 0.599
S. aureus DSM 20231 [4], first compound 0.0625 µg/mL, partner 5 µg/mL | 0.498
S. aureus Newman [3], first compound 0.0156 µg/mL, partner 1.25 µg/mL | 0.792
S. aureus Newman [3], first compound 0.0156 µg/mL, partner 2.5 µg/mL | 0.779
S. aureus Newman [3], first compound 0.0156 µg/mL, partner 5 µg/mL | 0.795
S. aureus Newman [3], first compound 0.0312 µg/mL, partner 2.5 µg/mL | 0.688
S. aureus Newman [3], first compound 0.0312 µg/mL, partner 5 µg/mL | 0.687
S. aureus Newman [3], first compound 0.0625 µg/mL, partner 2.5 µg/mL | 0.604
S. aureus Newman [3], first compound 0.0625 µg/mL, partner 5 µg/mL | 0.587
S. pneumoniae D39V [2], first compound 0.01 µg/mL, partner 1.5 µg/mL | 0.986
S. pneumoniae D39V [2], first compound 0.01 µg/mL, partner 3 µg/mL | 0.986
S. pneumoniae D39V [2], first compound 0.01 µg/mL, partner 6 µg/mL | 0.96
S. pneumoniae D39V [2], first compound 0.02 µg/mL, partner 1.5 µg/mL | 0.939
S. pneumoniae D39V [2], first compound 0.02 µg/mL, partner 3 µg/mL | 0.961
S. pneumoniae D39V [2], first compound 0.02 µg/mL, partner 6 µg/mL | 0.928
S. pneumoniae D39V [2], first compound 0.04 µg/mL, partner 3 µg/mL | 0.538
S. pneumoniae D39V [2], first compound 0.04 µg/mL, partner 6 µg/mL | 0.483

fitness, B. subtilis 168 [1], one replicate
Conditions | first compound 0.075 µg/mL | first compound 0.15 µg/mL | first compound 0.3 µg/mL
partner 1.25 µg/mL | 0.512 | 0.0497 | 0.0541
partner 2.5 µg/mL | 0.326 | 0.054 | 0.0573
partner 5 µg/mL | 0.0786 | 0.0366 | 0.0407

Conditions | Bliss interaction score
B. subtilis 168 [5] | -0.0872
S. aureus DSM 20231 [8] | -0.0577
S. aureus Newman [7] | -0.0522
S. pneumoniae D39V [6] | 0.0963

Cc1onc(-c2ccccc2)c1C(=O)N[C@@H]1C(=O)N2[C@@H]1SC(C)(C)[C@@H]2C(=O)O [Oxacillin] + Cc1cc(NS(=O)(=O)c2ccc(N)cc2)no1 [Sulfamethoxazol]
fitness
Conditions | partner 1 µg/mL | partner 2 µg/mL | partner 4 µg/mL
B. subtilis 168 [1], first compound 0.002 µg/mL | 0.996 | 0.968 | ≥ 1
B. subtilis 168 [1], first compound 0.004 µg/mL | 0.988 | 0.947 | 0.984
B. subtilis 168 [1], first compound 0.008 µg/mL | 0.93 | 0.929 | 0.915
S. aureus DSM 20231 [4], first compound 0.0156 µg/mL | 0.795 | 0.865 | 0.866
S. aureus DSM 20231 [4], first compound 0.0312 µg/mL | 0.636 | 0.65 | 0.719
S. aureus DSM 20231 [4], first compound 0.0625 µg/mL | 0.469 | 0.462 | 0.485
S. aureus Newman [3], first compound 0.0156 µg/mL | 0.748 | 0.686 | –
S. aureus Newman [3], first compound 0.0312 µg/mL | 0.758 | 0.688 | –
S. aureus Newman [3], first compound 0.0625 µg/mL | 0.63 | 0.624 | 0.556
S. pneumoniae D39V [2], first compound 0.01 µg/mL | 0.954 | 0.961 | 0.966
S. pneumoniae D39V [2], first compound 0.02 µg/mL | 0.888 | 0.904 | 0.915
S. pneumoniae D39V [2], first compound 0.04 µg/mL | 0.273 | 0.32 | 0.395

one replicate
Conditions | fitness
B. subtilis 168 [1], first compound 0.0078 µg/mL, partner 0.5 µg/mL | 0.943
B. subtilis 168 [1], first compound 0.0078 µg/mL, partner 1 µg/mL | 0.864
B. subtilis 168 [1], first compound 0.0078 µg/mL, partner 2 µg/mL | 0.896
B. subtilis 168 [1], first compound 0.0155 µg/mL, partner 0.5 µg/mL | 0.997
B. subtilis 168 [1], first compound 0.0155 µg/mL, partner 1 µg/mL | 0.755
B. subtilis 168 [1], first compound 0.0155 µg/mL, partner 2 µg/mL | 0.877
B. subtilis 168 [1], first compound 0.031 µg/mL, partner 0.5 µg/mL | 0.921
B. subtilis 168 [1], first compound 0.031 µg/mL, partner 1 µg/mL | 0.9
B. subtilis 168 [1], first compound 0.031 µg/mL, partner 2 µg/mL | 0.866
B. subtilis 168 [1], first compound 0.075 µg/mL, partner 1 µg/mL | 0.49
B. subtilis 168 [1], first compound 0.075 µg/mL, partner 2 µg/mL | 0.454
B. subtilis 168 [1], first compound 0.075 µg/mL, partner 4 µg/mL | 0.529
B. subtilis 168 [1], first compound 0.15 µg/mL, partner 1 µg/mL | 0.0391
B. subtilis 168 [1], first compound 0.15 µg/mL, partner 2 µg/mL | 0.0283
B. subtilis 168 [1], first compound 0.15 µg/mL, partner 4 µg/mL | 0.0224
B. subtilis 168 [1], first compound 0.3 µg/mL, partner 1 µg/mL | 0.0079
B. subtilis 168 [1], first compound 0.3 µg/mL, partner 2 µg/mL | 0.0431
B. subtilis 168 [1], first compound 0.3 µg/mL, partner 4 µg/mL | 0.0098
S. aureus Newman [3], first compound 0.0156 µg/mL, partner 8 µg/mL | 0.9
S. aureus Newman [3], first compound 0.0312 µg/mL, partner 8 µg/mL | 0.845
S. aureus Newman [3], first compound 0.0625 µg/mL, partner 8 µg/mL | 0.783

Conditions | Bliss interaction score
B. subtilis 168 [5] | 0.0542
S. aureus DSM 20231 [8] | -0.0464
S. aureus Newman [7] | -0.0519
S. pneumoniae D39V [6] | 0.0796
